Results on 12 molecules are retold here after US4318904A, “Peptide affinity labels for thrombin and other trypsin-like proteases” (Research Corporation, priority 1980, dated 1982).

For test [1], the target named is T1, thrombin (Homo sapiens, UniProt P00734). The test is described as follows: Inactivation of human thrombin, residual esterase activity. The format is biochemical. The settings on record: 4.5×10^-7 M thrombin + 2.25×10^-7 M label; theoretical value 50%.
Test [2] addresses T1, thrombin. The test is described as follows: Inactivation of human thrombin, fibrinogen clotting assay. The format is biochemical. The conditions noted are these: 4.5×10^-7 M thrombin + 2.25×10^-7 M label; theoretical value 50%.
The target of test [3] is T1, thrombin. Details: Thrombin itself is generated from a pro-enzyme, prothrombin, by the enzymatic action of another proteolytic enzyme, factor Xa. The conditions noted are these: Bajusz et al, page 603; reversible inhibitor; cited from earlier work.
Test [4] deals with T1, thrombin. Details: Thrombin itself is generated from a pro-enzyme, prothrombin, by the enzymatic action of another proteolytic enzyme, factor Xa. The settings on record: cited from earlier work; for t1/2, half time for the pseudo-first-order inactivation of thrombin / kapp /[I], apparent first order rate constant for inactivation of thrombin / concentration of affinity label: pH 7.0, 25° C; for Ki / k2 / k2 /Ki: Table IV, ref (a) Kettner and Shaw.

Where two headings read alike, the source gives them in different places. Where no end group is shown, it is not given here. The star is where a group is joined. CH2Cl = ClC*

On to `N=C(N)NCCC[C@H](NC(=O)[C@@H]1CCCN1C(=O)[C@H](N)Cc1ccccc1)C(=O)CCl` [D-Phe-Pro-ArgCH2 Cl, D-Phe-Pro-Arg-CH2 Cl.2HCl], for which, in test [1], the “inactivation of human thrombin by esterase assay” value is given as 47%. In addition, the “inactivation of human thrombin by clotting assay” value in test [2] worked out at 45%.

As to D-Phe-Pro-Arg-H, the Ki in test [3] is 75 nM.

For the molecule Glu-Gly-ArgCH2 Cl, the “t1/2, half time for the pseudo-first-order inactivation of thrombin” value (from here on “t1/2, half time”) in test [4] (inhibitor 1.0 × 10^-6 M) is 31 min. Further, the “kapp /[I], apparent first order rate constant for inactivation of thrombin / concentration of affinity label” value in test [4] is 2.20 (min^-1 M^-1) × 10^-4.

For the molecule Gly-Val-ArgCH2 Cl, in test [4], the Ki was 13000 nM; the k2 was 0.30 min⁻¹; the “k2 /Ki” value is 383 M⁻¹ s⁻¹; the “kapp /[I], apparent first order rate constant for inactivation of thrombin / concentration of affinity label” value is on record as 1.90 (min^-1 M^-1) × 10^-4. Also, the “t1/2, half time” value in test [4] (inhibitor 2.0 × 10^-6 M) is 18 min.

Ile-Pro-ArgCH2 Cl: in test [4] (inhibitor 7.5 × 10^-8 M), the “t1/2, half time” value was 22 min. In addition, the “kapp /[I], apparent first order rate constant for inactivation of thrombin / concentration of affinity label” value in test [4] is 42.00 (min^-1 M^-1) × 10^-4.

With Phe-Ala-ArgCH2 Cl, in test [4], the Ki is 2900 nM, the k2 was 0.26 min⁻¹ and the “k2 /Ki” value is 1500 M⁻¹ s⁻¹.

For the molecule Phe-Ala-LysCH2 Cl, in test [4], the Ki is 37000 nM, the k2 was 0.34 min⁻¹ and the “k2 /Ki” value is 150 M⁻¹ s⁻¹.

Consider Pro-Gly-ArgCH2 Cl, for which the “t1/2, half time” value in test [4] (inhibitor 1.0 × 10^-6 M) was 57 min. In test [4], the “kapp /[I], apparent first order rate constant for inactivation of thrombin / concentration of affinity label” value is listed as 1.20 (min^-1 M^-1) × 10^-4.

For Pro-Phe-ArgCH2 Cl, the “t1/2, half time” value in test [4] (inhibitor 5.0 × 10^-5 M) is 35 min. Also, in test [4], the “kapp /[I], apparent first order rate constant for inactivation of thrombin / concentration of affinity label” value is 0.04 (min^-1 M^-1) × 10^-4.

As for Val-Ile-Pro-ArgCH2 Cl (VIPR-CH2Cl), in test [4] (inhibitor 7.5 × 10^-8 M), the “t1/2, half time” value is 13 min. In addition, the “kapp /[I], apparent first order rate constant for inactivation of thrombin / concentration of affinity label” value in test [4] was 73.00 (min^-1 M^-1) × 10^-4.

For the molecule Val-Pro-ArgCH2 Cl, in test [4], the Ki was 670 nM; the k2 was 0.31 min⁻¹; the “k2 /Ki” value is 6670 M⁻¹ s⁻¹; the “kapp /[I], apparent first order rate constant for inactivation of thrombin / concentration of affinity label” value is recorded as 54.00 (min^-1 M^-1) × 10^-4. The “t1/2, half time” value in test [4] (inhibitor 7.5 × 10^-8 M) was 17 min.

As to Val-Val-ArgCH2 Cl, the “t1/2, half time” value in test [4] (inhibitor 1.0 × 10^-6 M) was 33 min. The “kapp /[I], apparent first order rate constant for inactivation of thrombin / concentration of affinity label” value in test [4] is 2.10 (min^-1 M^-1) × 10^-4.

By Ki is commonly meant the equilibrium dissociation constant of an inhibitor or competing ligand from its target.
